According to patent US11365194B2, “Analgesic drug using PAC1 receptor antagonistic drug” (KAGOSHIMA UNIVERSITY, priority 2017, dated 2022):

Legend:
[1] = target: T1, mouse PAC receptor-expressing CHO cell (PAC1/CHO cell) (Mus musculus, UniProt P70205); assay: CREB phosphorylation by PACAP stimulus, Western blot, PAC1/CHO cell; format: cell-based
T1 construct: expressed in transfected cells; host or cells: CHO cells
T1 sequence (P70205 21-496): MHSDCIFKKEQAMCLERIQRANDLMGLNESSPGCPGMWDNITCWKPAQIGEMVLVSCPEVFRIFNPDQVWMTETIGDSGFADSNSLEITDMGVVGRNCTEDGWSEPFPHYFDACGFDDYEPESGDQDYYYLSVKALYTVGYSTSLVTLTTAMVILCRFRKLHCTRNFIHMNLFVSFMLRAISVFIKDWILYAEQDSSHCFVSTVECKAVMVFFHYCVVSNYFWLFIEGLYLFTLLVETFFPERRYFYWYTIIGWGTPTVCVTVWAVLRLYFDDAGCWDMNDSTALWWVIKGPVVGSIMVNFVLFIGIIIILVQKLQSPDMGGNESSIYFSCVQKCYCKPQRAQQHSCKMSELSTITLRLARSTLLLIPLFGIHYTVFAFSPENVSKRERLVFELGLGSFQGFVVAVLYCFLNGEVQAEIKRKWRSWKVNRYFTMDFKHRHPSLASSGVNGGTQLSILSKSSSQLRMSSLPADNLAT
Experimental: The effect of each compound on the phosphorylation of CREB (cAMP-responsive element-binding protein) produced by a PACAP stimulus was examined by Western blot analysis using an anti-phosphorylated CREB (pCREB) antibody with a mouse PAC receptor-expressing CHO cell (PAC1/CHO cell) and a mouse VPAC1 receptor-expressing CHO cell (VPAC1/CHO cell).
Specifically, treatment with a compound (PA-8, PA-9, compounds 2j, 20 and 3d) at 10 μM to 10 nM or a solvent therefor (VEH: 0.1% DMSO-containing phosphate buffer solution) was performed for 30 minutes, 1 nM PACAP was then added, and protein was recovered within 30 minutes after a PACAP stimulus.

[2] = tested on: cold allodynia induced by oxaliplatin; assay: Onset of cold allodynia induced by oxaliplatin, drug given around oxaliplatin administration; format: in vivo, mouse; details: 10 mg/kg oral, 30 minutes before oxaliplatin or 3 administrations
Experimental: Oxaliplatin was dissolved in 5% glucose-containing saline and intraperitoneally administered at a dose of 2 mg/kg. Drug administration (oral administration) was performed 30 minutes before oxaliplatin administration (FIG. 7A); or 3 times: 30 minutes before oxaliplatin administration, 2.5 hours after the administration, and 5.5 hours after the administration (FIG. 7B). Male ddY mice (6 to 12 weeks old) were used. The axis of ordinates is the duration of the behavior of licking and paw waving after the application of an acetone drop (10 μL) to the footpad of a hind paw.

[3] = tested on: cold allodynia induced by oxaliplatin; assay: Cold allodynia induced by oxaliplatin, drug on fourth day after oxaliplatin (acetone test); format: in vivo, mouse; details: 10 mg/kg, single oral administration, fourth day after oxaliplatin
Experimental: Oxaliplatin was dissolved in 5% glucose-containing saline and intraperitoneally administered at a dose of 2 mg/kg. A drug was administered on the fourth day after oxaliplatin administration. Male ddY mice (6 to 12 weeks old) were used. The axis of ordinates is the duration of the behavior of licking and paw waving after the application of an acetone drop (10 L) to the footpad of a hind paw.

C=CCOc1ccc(C2CC(=O)Nc3nc(N)[nH]c(=O)c32)cc1OC (stereo not shown) [PA-8, reference compound]
suppression of CREB phosphorylation by PACAP (1 nM) ([1]; PAC1/CHO cell, compound 10 μM to 10 nM, 30 minutes before 1 nM PACAP): suppressed CREB phosphorylation by PACAP (1 nM)
receptor selectivity (PAC1 versus VPAC1) ([1]; concluded from PAC1/CHO and VPAC1/CHO data): PAC1 receptor selective antagonistic drug
suppression of the onset of cold allodynia by oxaliplatin [2]: suppressed the onset of cold allodynia by oxaliplatin significantly
suppression of cold allodynia by oxaliplatin [3]: suppressed cold allodynia by oxaliplatin significantly over 4 to 5 hours
